Results taken from ChEMBL document CHEMBL3885861, “Open TG-GATES”.

Species on record: Rattus norvegicus
Test: Open TG-GATES - Regimen: Daily Repeat
Format: toxicity, organism-based, Sprague-Dawley
Design: regimen Daily Repeat, gender Male, age 6 weeks
Conditions: in vivo, po, route gavage; for APTT / Bas / Eos / Fbg / Hb / Ht / Lym / MCH / MCHC / MCV / Mono / Neu / PT / Plat / RBC / Ret / WBC: tissue Blood; for KIDNEY_L / KIDNEY_R / KIDNEY_TOTAL: tissue Kidney; for LIVER: tissue Liver; for A/G / ALP / ALT / AST / BUN / CRE / Ca / Cl / DBIL / GLC / IP / K / LDH / Na / PL / RALB / TBIL / TC / TG / TP / gamma-GTP: tissue Plasma
[1] = 0 mg/kg, 72 h, dose level Control, time 3 day
[2] = 0 mg/kg, […], dose level Control, time 7 day
[3] = 0 mg/kg, […], dose level Control, time 14 day
[4] = 0 mg/kg, […], dose level Control, time 28 day
[5] = 15 mg/kg, 72 h, dose level Low, time 3 day
[6] = 15 mg/kg, […], dose level Low, time 7 day
[7] = 15 mg/kg, […], dose level Low, time 14 day
[8] = 15 mg/kg, […], dose level Low, time 28 day

## CN(C)CCC=C1c2ccccc2CCc2ccccc21 [AMITRIPTYLINE]
[1]
  TERMINAL_BW: 226.6 g
  APTT: 14.9 s
  Bas: 0%
  Eos: 1.2%
  Fbg: 287.4 mg/dL
  Hb: 13 g/dL
  Ht: 39.9%
  Lym: 71.4%
  MCH: 21.3 pg
  MCHC: 32.7%
  MCV: 65.1 fL
  Mono: 3.4%
  Neu: 23.4%
  PT: 15.5 s
  Plat: 116.7 x10_4/uL
  RBC: 613.4 x10_4/ul
  Ret: 7.7%
  WBC: 71.8 x10_2/uL
  KIDNEY_L: 0.9 g
  KIDNEY_R: 0.9 g
  KIDNEY_TOTAL: 1.8 g
  LIVER: 10.7 g
  A/G: 0.8
  ALP: 1976.4 IU/L
  ALT: 54.6 IU/L
  AST: 74.2 IU/L
  BUN: 16.4 mg/dL
  CRE: 0.2 mg/dL
  Ca: 11.2 mg/dL
  Cl: 105.6 meq/L
  DBIL: 0.02 mg/dL
  GLC: 179.4 mg/dL
  IP: 7.9 mg/dL
  K: 4.1 meq/L
  LDH: 81 IU/L
  Na: 143.8 meq/L
  PL: 162.2 mg/dL
  RALB: 2.7 g/dL
  TBIL: 0.054 mg/dL
  TC: 83.2 mg/dL
  TG: 121.8 mg/dL
  TP: 5.9 g/dL
  gamma-GTP: 0.6 IU/L
[2]
  TERMINAL_BW: 259.7 g
  APTT: 16.5 s
  Bas: 0.6%
  Eos: 1%
  Fbg: 302.6 mg/dL
  Hb: 13.5 g/dL
  Ht: 40.7%
  Lym: 78.8%
  MCH: 20.8 pg
  MCHC: 33.1%
  MCV: 62.8 fL
  Mono: 2.8%
  Neu: 16.4%
  PT: 15.2 s
  Plat: 109.9 x10_4/uL
  RBC: 648.8 x10_4/ul
  Ret: 5.7%
  WBC: 86.3 x10_2/uL
  KIDNEY_L: 1 g
  KIDNEY_R: 1 g
  KIDNEY_TOTAL: 2 g
  LIVER: 11.9 g
  A/G: 0.8
  ALP: 1482.8 IU/L
  ALT: 40.8 IU/L
  AST: 64.2 IU/L
  BUN: 16 mg/dL
  CRE: 0.2 mg/dL
  Ca: 10.9 mg/dL
  Cl: 106.4 meq/L
  DBIL: 0.014 mg/dL
  GLC: 185.8 mg/dL
  IP: 7.5 mg/dL
  K: 3.9 meq/L
  LDH: 56.4 IU/L
  Na: 143.8 meq/L
  PL: 165.8 mg/dL
  RALB: 2.6 g/dL
  TBIL: 0.052 mg/dL
  TC: 81.2 mg/dL
  TG: 131.2 mg/dL
  TP: 5.8 g/dL
  gamma-GTP: 0.6 IU/L
[3]
  TERMINAL_BW: 318.6 g
  APTT: 17.3 s
  Bas: 0%
  Eos: 1%
  Fbg: 294.4 mg/dL
  Hb: 13.8 g/dL
  Ht: 41.5%
  Lym: 76.8%
  MCH: 20.9 pg
  MCHC: 33.3%
  MCV: 62.5 fL
  Mono: 2.2%
  Neu: 19%
  PT: 15.6 s
  Plat: 127.9 x10_4/uL
  RBC: 664.4 x10_4/ul
  Ret: 4.7%
  WBC: 94.5 x10_2/uL
  KIDNEY_L: 1.2 g
  KIDNEY_R: 1.2 g
  KIDNEY_TOTAL: 2.5 g
  LIVER: 14 g
  A/G: 0.8
  ALP: 1703.4 IU/L
  ALT: 41.8 IU/L
  AST: 68.6 IU/L
  BUN: 17.6 mg/dL
  CRE: 0.2 mg/dL
  Ca: 10.9 mg/dL
  Cl: 106 meq/L
  DBIL: 0.024 mg/dL
  GLC: 191.8 mg/dL
  IP: 6.3 mg/dL
  K: 4.3 meq/L
  LDH: 70.8 IU/L
  Na: 142.4 meq/L
  PL: 157 mg/dL
  RALB: 2.7 g/dL
  TBIL: 0.046 mg/dL
  TC: 71.6 mg/dL
  TG: 128.8 mg/dL
  TP: 6.1 g/dL
  gamma-GTP: 0.4 IU/L
[4]
  TERMINAL_BW: 406.1 g
  APTT: 18.5 s
  Bas: 0.2%
  Eos: 1%
  Fbg: 253 mg/dL
  Hb: 14.9 g/dL
  Ht: 43.8%
  Lym: 77.2%
  MCH: 19.6 pg
  MCHC: 33.9%
  MCV: 57.7 fL
  Mono: 2.6%
  Neu: 18.2%
  PT: 16.2 s
  Plat: 104.1 x10_4/uL
  RBC: 760.8 x10_4/ul
  Ret: 2.5%
  WBC: 120.5 x10_2/uL
  KIDNEY_L: 1.4 g
  KIDNEY_R: 1.4 g
  KIDNEY_TOTAL: 2.8 g
  LIVER: 17 g
  A/G: 0.8
  ALP: 1151.8 IU/L
  ALT: 47.2 IU/L
  AST: 83 IU/L
  BUN: 17.6 mg/dL
  CRE: 0.2 mg/dL
  Ca: 10.5 mg/dL
  Cl: 104.8 meq/L
  DBIL: 0.02 mg/dL
  GLC: 198.6 mg/dL
  IP: 6.3 mg/dL
  K: 3.7 meq/L
  LDH: 116.2 IU/L
  Na: 143 meq/L
  PL: 138 mg/dL
  RALB: 2.8 g/dL
  TBIL: 0.058 mg/dL
  TC: 62 mg/dL
  TG: 134.8 mg/dL
  TP: 6.2 g/dL
  gamma-GTP: 0.4 IU/L
[5]
  TERMINAL_BW: 224.1 g
  APTT: 16 s
  Bas: 0%
  Eos: 1%
  Fbg: 268.6 mg/dL
  Hb: 13.1 g/dL
  Ht: 40%
  Lym: 76.8%
  MCH: 20.3 pg
  MCHC: 32.7%
  MCV: 62 fL
  Mono: 3%
  Neu: 18.2%
  PT: 16 s
  Plat: 118.8 x10_4/uL
  RBC: 645.4 x10_4/ul
  Ret: 7.3%
  WBC: 97.8 x10_2/uL
  KIDNEY_L: 0.9 g
  KIDNEY_R: 0.9 g
  KIDNEY_TOTAL: 1.8 g
  LIVER: 10.4 g
  A/G: 0.8
  ALP: 1844.8 IU/L
  ALT: 55.8 IU/L
  AST: 74.6 IU/L
  BUN: 14.2 mg/dL
  CRE: 0.2 mg/dL
  Ca: 11 mg/dL
  Cl: 105.6 meq/L
  DBIL: 0.022 mg/dL
  GLC: 185.2 mg/dL
  IP: 7.7 mg/dL
  K: 4 meq/L
  LDH: 74.6 IU/L
  Na: 143.6 meq/L
  PL: 150.2 mg/dL
  RALB: 2.7 g/dL
  TBIL: 0.06 mg/dL
  TC: 76.2 mg/dL
  TG: 106 mg/dL
  TP: 5.8 g/dL
  gamma-GTP: 0.8 IU/L
[6]
  TERMINAL_BW: 265.9 g
  APTT: 15.5 s
  Bas: 0%
  Eos: 1.2%
  Fbg: 292 mg/dL
  Hb: 13.6 g/dL
  Ht: 41.4%
  Lym: 79.6%
  MCH: 20.6 pg
  MCHC: 32.7%
  MCV: 62.8 fL
  Mono: 3%
  Neu: 15.6%
  PT: 15.1 s
  Plat: 116.5 x10_4/uL
  RBC: 659 x10_4/ul
  Ret: 6.3%
  WBC: 93.6 x10_2/uL
  KIDNEY_L: 1.1 g
  KIDNEY_R: 1.1 g
  KIDNEY_TOTAL: 2.1 g
  LIVER: 12.7 g
  A/G: 0.8
  ALP: 1784.2 IU/L
  ALT: 44.8 IU/L
  AST: 70.6 IU/L
  BUN: 18.4 mg/dL
  CRE: 0.2 mg/dL
  Ca: 10.9 mg/dL
  Cl: 105.6 meq/L
  DBIL: 0.018 mg/dL
  GLC: 187.6 mg/dL
  IP: 7.7 mg/dL
  K: 4.1 meq/L
  LDH: 85.8 IU/L
  Na: 143.8 meq/L
  PL: 163.8 mg/dL
  RALB: 2.7 g/dL
  TBIL: 0.046 mg/dL
  TC: 78 mg/dL
  TG: 126 mg/dL
  TP: 5.9 g/dL
  gamma-GTP: 0.8 IU/L
[7]
  TERMINAL_BW: 314.4 g
  APTT: 17.3 s
  Bas: 0.4%
  Eos: 1%
  Fbg: 289.6 mg/dL
  Hb: 14 g/dL
  Ht: 42.2%
  Lym: 76%
  MCH: 20 pg
  MCHC: 33.2%
  MCV: 60.3 fL
  Mono: 2.2%
  Neu: 20%
  PT: 16 s
  Plat: 118.1 x10_4/uL
  RBC: 698.6 x10_4/ul
  Ret: 4.4%
  WBC: 115.2 x10_2/uL
  KIDNEY_L: 1.2 g
  KIDNEY_R: 1.2 g
  KIDNEY_TOTAL: 2.4 g
  LIVER: 13.8 g
  A/G: 0.8
  ALP: 1397.6 IU/L
  ALT: 44 IU/L
  AST: 69 IU/L
  BUN: 16.8 mg/dL
  CRE: 0.2 mg/dL
  Ca: 10.9 mg/dL
  Cl: 105.8 meq/L
  DBIL: 0.018 mg/dL
  GLC: 196 mg/dL
  IP: 6.8 mg/dL
  K: 4 meq/L
  LDH: 65 IU/L
  Na: 142.8 meq/L
  PL: 154 mg/dL
  RALB: 2.7 g/dL
  TBIL: 0.05 mg/dL
  TC: 70 mg/dL
  TG: 156.2 mg/dL
  TP: 6.1 g/dL
  gamma-GTP: 0.4 IU/L
[8]
  TERMINAL_BW: 400.5 g
  APTT: 21.5 s
  Bas: 0.2%
  Eos: 1.4%
  Fbg: 286.6 mg/dL
  Hb: 15.5 g/dL
  Ht: 45.4%
  Lym: 81.4%
  MCH: 19.3 pg
  MCHC: 34.1%
  MCV: 56.6 fL
  Mono: 2%
  Neu: 14.2%
  PT: 16.1 s
  Plat: 97.5 x10_4/uL
  RBC: 802.8 x10_4/ul
  Ret: 2.5%
  WBC: 104.9 x10_2/uL
  KIDNEY_L: 1.4 g
  KIDNEY_R: 1.4 g
  KIDNEY_TOTAL: 2.8 g
  LIVER: 16.1 g
  A/G: 0.8
  ALP: 1354.6 IU/L
  ALT: 36 IU/L
  AST: 61.2 IU/L
  BUN: 17.6 mg/dL
  CRE: 0.2 mg/dL
  Ca: 10.6 mg/dL
  Cl: 103.8 meq/L
  DBIL: 0.018 mg/dL
  GLC: 180.6 mg/dL
  IP: 6.2 mg/dL
  K: 3.8 meq/L
  LDH: 55.4 IU/L
  Na: 142.8 meq/L
  PL: 156.2 mg/dL
  RALB: 2.8 g/dL
  TBIL: 0.056 mg/dL
  TC: 77 mg/dL
  TG: 130.4 mg/dL
  TP: 6.3 g/dL
  gamma-GTP: 0 IU/L
